From patent publication EP4810052A2, “HCRHR2 SELECTIVE POLYPEPTIDES” (Gubra A/S, priority 2023, dated 2026)
Where two headings read alike, the source gives them in different places. Starred links: 1 amine or outer side, 2 acyl side, 3 side chain; linkers in the order of their positions; H or OH if unused. Non-standard residues stand in square brackets, D forms with d. Residues, ends and D or L forms follow the SMILES beside them. Groups on a side chain read outwards from the residue. *: point of attachment. C20 diacid = O=C(O)CCCCCCCCCCCCCCCCCCC(=O)*; γGlu = O=C(O)[C@H](CCC(=O)[*:2])N[*:1]; Nle = CCCC[C@H](N)C(=O)O; AEEA = NCCOCCOCC(=O)O; Aib = CC(C)(N)C(=O)O

Experiments:
hCRHR2 = target: T1, hCRHR2 (Homo sapiens, UniProt Q13324); assay: HTRF cAMP assay, determination of hCRHR2 potency (peptide libraries 5 conc., purified peptides 11 conc.); assay type: cell-based; settings: for EC50: read-out: hCRHR2 EC50
T1 sequence (Q13324 1-411): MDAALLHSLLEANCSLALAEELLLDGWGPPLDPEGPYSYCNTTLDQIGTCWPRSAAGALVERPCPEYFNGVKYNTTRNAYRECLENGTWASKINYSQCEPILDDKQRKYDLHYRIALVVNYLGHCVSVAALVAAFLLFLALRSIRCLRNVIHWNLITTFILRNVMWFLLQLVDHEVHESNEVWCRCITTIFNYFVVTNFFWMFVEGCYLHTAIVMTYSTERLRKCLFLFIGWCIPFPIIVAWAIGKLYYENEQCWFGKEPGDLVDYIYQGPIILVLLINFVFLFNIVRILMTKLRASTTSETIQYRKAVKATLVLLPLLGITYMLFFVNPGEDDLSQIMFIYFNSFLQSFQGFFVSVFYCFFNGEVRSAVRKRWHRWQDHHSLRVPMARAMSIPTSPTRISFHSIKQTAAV
Method in brief: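 Frozen stocks of hCRHR2-expressing CHO-K1 cells, thawed just before testing, received peptide agonists in suspension; cAMP quantified by competitive HTRF immunoassay, with curves fitted by nonlinear regression (variable slope) for EC50.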

[1] = Thioflavin T fibril formation assay of purified peptides; assay type: physicochemical; set-up: key: Amyloid fibril formation detected by an increase in ThT fluorescence was denoted with "Yes"; samples without increasing ThT fluorescence hence not forming amyloid fibrils were denoted "No"
Method in brief: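 Fibril formation read as rising ThT emission at 480 nm (450 nm excitation), 4 µM ThT, over 96 h at 40°C with alternating 5-min rest and 700 rpm shaking cycles, in triplicate. Samples were 200 µM compound in 50 mM phosphate at various pH values, or co-formulated at 200 µM in semaglutide product at pH 7.4.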

[2] = Chemical stability of purified peptides (RP-UHPLC main peak purity loss); assay type: physicochemical
Method in brief: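 Purity loss is the drop in RP-UHPLC main-peak area fraction (215 nm detection, C8 column at 50 °C) from time zero to day 14 and/or day 28 at 40 °C. Samples held roughly 1.0 mg/ml peptide in 50 mM phosphate, pH 7.5, with other pH targets also tested.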

[3] = pH 7.5
PK in rats = assay type: in vivo; set-up: T½ / MRT: unit not given here; settings: Rat
Description: Lean male Sprague Dawley rats (RJHan:SD) were obtained from JanVier (JanVier Labs, France) at 7 weeks of age. The animals were pair housed until randomization under a 12/12 h dark-light cycle, light off at 3 PM. Room temperature was controlled to 22°C ± 1°C, with 60 % ± 20% humidity.
Animals had ad libitum access to regular rodent chow (Altromin 1324, Brogaarden, Denmark) and tap water.
After 2 weeks of acclimatization, the animals were single housed and randomized into treatment groups (n = 3 per group) based on body weight on study day -3. On study day 1, animals were dosed 50 nmol/kg IV and SC in combination of two peptides. Plasma samples were collected for PK analysis at times 0.17, 1, 3, 6, 24, 30, 48, 72 and 96 hours post dosing. Plasma samples were analyzed using LC-MSMS and PK parameters were estimated by Non-Compartmental Analysis (NCA).

hCRHR1 = target: T2, hCRHR1 (Homo sapiens, UniProt P34998); assay: HTRF cAMP assay, determination of hCRHR1 potency (peptide libraries 5 conc., purified peptides 11 conc.); assay type: cell-based; settings: read-out: hCRHR1 EC50
T2 sequence (P34998 24-415): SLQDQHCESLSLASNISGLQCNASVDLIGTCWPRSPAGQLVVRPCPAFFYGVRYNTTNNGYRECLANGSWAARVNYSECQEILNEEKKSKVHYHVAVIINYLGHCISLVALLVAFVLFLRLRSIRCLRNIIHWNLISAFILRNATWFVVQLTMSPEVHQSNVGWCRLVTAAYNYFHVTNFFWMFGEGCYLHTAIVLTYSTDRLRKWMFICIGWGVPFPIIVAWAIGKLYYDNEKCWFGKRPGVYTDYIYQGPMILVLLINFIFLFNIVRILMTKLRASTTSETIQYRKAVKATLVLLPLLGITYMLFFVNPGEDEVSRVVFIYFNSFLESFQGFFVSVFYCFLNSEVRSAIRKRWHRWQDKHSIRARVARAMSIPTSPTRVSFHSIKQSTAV
Method in brief: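 Cellular cAMP was read by time-resolved FRET between d2-labelled cAMP and cryptate anti-cAMP antibody. The cells were freshly thawed suspension CHO-K1 cells stably expressing human CRHR1.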

[4] = purified peptides, CHO-K1 cells stably expressing hCRHR2, cAMP HTRF
[5] = pH 7.5, 40°C, 14 days, first value of cell
[6] = pH 7.5, 40°C, 28 days, second value of cell
[7] = purified peptides, CHO-K1 cells stably expressing hCRHR1, cAMP HTRF

## CC[C@H](C)[C@H](N)C(=O)N[C@H](C(=O)N[C@@H](CC(C)C)C(=O)N[C@@H](CO)C(=O)N[C@@H](CC(C)C)C(=O)N[C@@H](CC(=O)O)C(=O)N[C@H](C(=O)N1CCC[C@H]1C(=O)N[C@H](C(=O)NCC(=O)N[C@@H](CC(C)C)C(=O)N[C@@H](CC(C)C)C(=O)N[C@@H](CCC(N)=O)C(=O)N[C@H](C(=O)N[C@@H](CC(C)C)C(=O)N[C@@H](CC(C)C)C(=O)N[C@@H](CCC(=O)O)C(=O)N[C@@H](CCC(N)=O)C(=O)N[C@@H](C)C(=O)N[C@@H](CCCNC(=N)N)C(=O)N[C@@H](C)C(=O)N[C@@H](CCCNC(=N)N)C(=O)N[C@@H](C)C(=O)N[C@@H](C)C(=O)N[C@@H](CCCNC(=N)N)C(=O)N[C@@H](CCC(=O)O)C(=O)N[C@@H](CCC(N)=O)C(=O)N[C@@H](C)C(=O)N[C@@H](CCCCNC(=O)COCCOCCNC(=O)COCCOCCNC(=O)CC[C@H](NC(=O)CC[C@H](NC(=O)CCCCCCCCCCCCCCCCCCC(=O)O)C(=O)O)C(=O)O)C(=O)N[C@H](C(=O)N[C@@H](CC(N)=O)C(=O)NC(C)(C)C(=O)N[C@@H](CCC(=O)O)C(=O)N[C@H](C(=O)N[C@@H](CC(C)C)C(=O)N[C@@H](C)C(=O)N[C@@H](CCC(=O)O)C(=O)N[C@H](C(N)=O)C(C)C)[C@@H](C)CC)[C@@H](C)O)[C@@H](C)CC)[C@@H](C)CC)C(C)C)C(C)C [SEQ ID NO: 15] (H-IVLSLDVPIGLLQILLEQARARAAREQAK([AEEA-AEEA-γGlu-γGlu-C20 diacid])TN[Aib]EILAEV-NH2)
hCRHR2; hCRHR1-EC50/hCRHR2-EC50
  Selectivity ratio (hCRHR1/ hCRHR2): >2174
hCRHR2; [4]
  EC50: 2.3 nM
[1]; pH 7.5, ThT assay
  Fibrillation (pH 7.5): No
[2]; [5]
  Chemical stability at pH 7.5 after 14 days at 40°C (% degradation): -1.0%
[2]; [6]
  Chemical stability at pH 7.5 after 28 days at 40°C (% degradation): -1.2%
[3]
  Solubility pH 7.5, target conc. =10 mg/mL (measured mg/mL): 9.8 mg/mL
PK in rats
  MRT: 8
  T½: 7.7
hCRHR1; [7]
  EC50: > 5000 nM

## CC[C@H](C)[C@H](N)C(=O)N[C@H](C(=O)N[C@@H](CC(C)C)C(=O)N[C@@H](CO)C(=O)N[C@@H](CC(C)C)C(=O)N[C@@H](CC(=O)O)C(=O)N[C@H](C(=O)N1CCC[C@H]1C(=O)N[C@H](C(=O)NCC(=O)N[C@@H](CC(C)C)C(=O)N[C@@H](CC(C)C)C(=O)N[C@@H](CCC(N)=O)C(=O)N[C@H](C(=O)N[C@@H](CC(C)C)C(=O)N[C@@H](CC(C)C)C(=O)N[C@@H](CCC(=O)O)C(=O)N[C@@H](CCC(N)=O)C(=O)N[C@@H](C)C(=O)N[C@@H](CCCNC(=N)N)C(=O)N[C@@H](C)C(=O)N[C@@H](CCCNC(=N)N)C(=O)N[C@@H](C)C(=O)N[C@@H](C)C(=O)N[C@@H](CCCNC(=N)N)C(=O)N[C@@H](CCC(=O)O)C(=O)N[C@@H](CCC(N)=O)C(=O)N[C@@H](C)C(=O)N[C@@H](CCCCNC(=O)COCCOCCNC(=O)COCCOCCNC(=O)CC[C@H](NC(=O)CC[C@H](NC(=O)CCCCCCCCCCCCCCCCCCC(=O)O)C(=O)O)C(=O)O)C(=O)N[C@H](C(=O)N[C@@H](CC(N)=O)C(=O)N[C@H](C(=O)N[C@@H](CCC(=O)O)C(=O)N[C@H](C(=O)N[C@@H](CC(C)C)C(=O)N[C@@H](C)C(=O)N[C@@H](CCC(=O)O)C(=O)N[C@H](C(N)=O)C(C)C)[C@@H](C)CC)C(C)C)[C@@H](C)O)[C@@H](C)CC)[C@@H](C)CC)C(C)C)C(C)C [SEQ ID NO: 14] (H-IVLSLDVPIGLLQILLEQARARAAREQAK([AEEA-AEEA-γGlu-γGlu-C20 diacid])TNVEILAEV-NH2)
hCRHR2; hCRHR1-EC50/hCRHR2-EC50
  Selectivity ratio (hCRHR1/ hCRHR2): > 1000
hCRHR2; [4]
  EC50: 5 nM
[1]; pH 7.5, ThT assay
  Fibrillation (pH 7.5): No
[2]; [5]
  Chemical stability at pH 7.5 after 14 days at 40°C (% degradation): -0.3%
[2]; [6]
  Chemical stability at pH 7.5 after 28 days at 40°C (% degradation): -1.2%
[3]
  Solubility pH 7.5, target conc. =10 mg/mL (measured mg/mL): 9.2 mg/mL
PK in rats
  MRT: 6.1
  T½: 5.1
hCRHR1; [7]
  EC50: > 5000 nM

## CCCC[C@H](NC(=O)[C@@H](NC(=O)[C@H](CCC(=O)O)NC(=O)[C@H](C)NC(=O)[C@H](CC(N)=O)NC(=O)[C@H](CCC(=O)O)NC(=O)[C@H](CCCCNC(=O)COCCOCCNC(=O)COCCOCCNC(=O)CC[C@H](NC(=O)CC[C@H](NC(=O)CCCCCCCCCCCCCCCCCCC(=O)O)C(=O)O)C(=O)O)NC(=O)[C@H](C)NC(=O)[C@H](CCC(N)=O)NC(=O)[C@H](CCC(=O)O)NC(=O)[C@H](CCCNC(=N)N)NC(=O)[C@H](C)NC(=O)[C@H](C)NC(=O)[C@H](CCCNC(=N)N)NC(=O)[C@H](C)NC(=O)[C@H](CCCNC(=N)N)NC(=O)[C@H](C)NC(=O)[C@H](CCC(N)=O)NC(=O)[C@H](CO)NC(=O)[C@H](CC(C)C)NC(=O)[C@H](CC(C)C)NC(=O)[C@@H](NC(=O)[C@H](CCC(N)=O)NC(=O)[C@H](CC(C)C)NC(=O)[C@H](CC(C)C)NC(=O)CNC(=O)[C@@H](NC(=O)[C@@H]1CCCN1C(=O)[C@@H](NC(=O)[C@H](CC(=O)O)NC(=O)[C@H](CC(C)C)NC(=O)[C@H](CO)NC(=O)[C@H](CC(C)C)NC(=O)[C@@H](NC(=O)[C@@H](N)[C@@H](C)CC)C(C)C)C(C)C)[C@@H](C)CC)[C@@H](C)CC)[C@@H](C)CC)C(=O)N[C@@H](C)C(=O)N[C@@H](CCC(=O)O)C(=O)N[C@H](C(N)=O)C(C)C [compound 239] (H-IVLSLDVPIGLLQILLSQARARAAREQAK([AEEA-AEEA-γGlu-γGlu-C20 diacid])ENAEI[Nle]AEV-NH2)
hCRHR2; Table 5
  Selectivity ratio (hCRHR1/ hCRHR2): >5556
hCRHR2; Table 5, purified peptides
  EC50: 0.9 nM
[1]; pH 7.5
  Fibrillation (pH 7.5): No
[2]; pH 7.5, 14 days, 40°C
  Chemical stability at pH 7.5 after 14 days at 40°C (% degradation): -1.9%
[2]; pH 7.5, 28 days, 40°C
  Chemical stability at pH 7.5 after 28 days at 40°C (% degradation): -2.2%
[3]
  Solubility pH 7.5, target conc. =10 mg/mL (measured mg/mL): 11 mg/mL
hCRHR1; Table 5, purified peptides
  EC50: > 5000 nM
